Assay results as given in paper PMC6013238, “Development of novel NEMO-binding domain mimetics for inhibiting IKK/NF-κB activation” (PLoS Biology, 2018).
Values joined by “and” are separate entries in the source; they are usually repeats but may differ in a detail not shown here. Equal entries are not always repeated.

Assays:
NF-κB activation = assay: NF-κB firefly luciferase reporter assay, TNF-α-stimulated stably transfected HEK293 cells; assay type: cell-based, human; settings: TNF-α 10 ng/ml 3 h, vehicle = 100, single experiments; for NF-κB luciferase activity normalized to vehicle: Fig 2C, derivatives at 100 μM; for NF-κB luciferase activity normalized to untreated stimulated control: Fig 2A, 100 μM, 30 min pretreatment
Description: To determine whether the small molecules identified by the in silico screening inhibit NF-κB activation, a HEK293 cell line stably expressing a luciferase reporter driven by a synthetic, NF-κB-dependent promoter was utilized. To induce NF-κB activation, cells were treated with 10 ng/mL of TNF-α and harvested 3 h post treatment for analysis of luciferase activity. […] To determine whether ZINC12909780 inhibits NF-κB in a dose-dependent manner, concentrations were tested at 0, 6.25, 25, 50, and 100 μM.
Luciferase activity was normalized to untreated stimulated control cells. […] Cell viability was calculated by normalizing to untreated cells. […] Underlying data can be found in S1 Data.
HEK293 cells stably transfected with luciferase reporter plasmid driven by NF-κB were seeded in 96-well plates in triplicate and pretreated with DMSO or varying small molecules at indicated concentration for 30 min, followed by the stimulation of 10 ng/ml of TNF-α for 3 h. Cells were washed with PBS once and harvested in Passive Lysis Buffer (Promega, Madison, WI). Luciferase assay (Promega) was performed by using a luminometer according to the manufacturer’s instructions.

HEK293 cells = settings: Fig 2D; 100 μM, 24 h
Description: (A) HEK293 cells stably expressing NF-κB luciferase reporter were pretreated with indicated small molecules at 100 μM for 30 min, followed by stimulation with TNF-α (10 ng/ml) for 3 h. Luciferase activity was normalized to untreated stimulated control cells. […] (B) The dose-dependent response of ZINC12909780 was tested by NF-κB luciferase assay in HEK293 cells. Three independent experiments were performed, and data shown represent mean +/− SD. […] (D) HEK293 cells were cultured in the presence of 100 μM of indicated derivatives for 24 h, and cell survival was determined by MTT assay. Cell viability was calculated by normalizing to untreated cells. (E) Dose-dependent inhibitory effects were determined for ZINC5 at 0, 25, 50, and 100 μM by using NF-κB luciferase assay. (F) HEK293 were cultivated in the presence of ZINC5 at listed concentrations for 24 h, and cell survival was assessed by MTT assay. Data represent the mean +/− SD from 4–5 independent experiments. *P < 0.05; **P < 0.01; ***P < 0.001. Underlying data can be found in S1 Data. HEK293, human embryonic kidney 293 cells; MTT, 3-(4,5-dimethylthiazol-2-yl)-2,5-dephenyltetrazolium bromide colormetric assay for assessing cell metabolic activity; NF-κB, nuclear factor κB; TNF-α; tumor necrosis factor α; SD, standard deviation.
HEK293 cells were grown in a 96-well plate at 3 × 10^4 cells/well in triplicate and treated with DMSO or listed small molecules at indicated concentrations for 24 h. Cell survival was determined by adding 20 μl of 5 mg/ml MTT (thiazolyl blue tetrazolium bromide) to each well, followed by incubation in 37 °C for 3 h. Media were removed, and purple formazan was dissolved in 100 uL of DMSO. Absorbance was measured at 590 nm on a microplate reader (PerkinElmer, Waltham, MA). Cell viability was calculated by normalizing values to untreated controls.

IL-6 production = assay: Mouse IL-6 ELISA of supernatant of LPS-stimulated Raw 264.7 cells; assay type: cell-based; settings: Fig 4D; IKKi VII 2 μM; LPS 1 μg/ml 24 h
Description: Fig 4 Modified lead NBD mimetics inhibit TNF-α- and LPS-induced NF-κB activation by disrupting the association between NEMO and IKKβ. (A) Structures of top NBD mimetics. (B) Measurement of NF-κB activation in response to TNF-α by using Dual-luciferase reporter assays. HEK293 cells cotransfected with NF-κB luciferase reporter and SV40-Renilla plasmids were pretreated with DMSO or listed small molecules at 0, 25, 50, 100, and 150 μM for 30 min, followed by the induction of TNF-α for 3 h. Data shown are representative of 2–3 independent experiments. […] Raw 264.7 cells were pretreated with indicated drugs for 30 min and then stimulated with 1 μg/ml of LPS for 2 h. Cells were then harvested for RNA extraction and qRT-PCR analysis. Drug concentrations used are as follows: IKKi VII (2 μM), 8K-NBD peptide (200 μM), SR12343 (50 μM), SR12460 (50 μM), SR12454 (50 μM), and SR11481 (50 μM). Data are representative of 2 independent experiments. […] Raw 264.7 cells pretreated with DMSO or drugs at indicated concentrations were exposed to 1 μg/ml of LPS for 24 h, and supernatant was collected for ELISA analysis of mouse IL-6. *P < 0.05; **P < 0.01. Underlying data can be found in S1 Data. HEK293, human embryonic kidney 293 cells; IKK, IκB kinase; IL-6, interleukin 6; LPS, lipopolysaccharide; NBD, NEMO-binding domain; n.d., nondetectable; NEMO, NF-κB essential modulator; NF-κB, nuclear factor κB; qRT-PCR, […] real-time polymerase chain reaction; TNF-α; tumor necrosis factor α. TEXT PRINTED IN THE PICTURE: (D) ikki VII: mIL-6 (ng/ml): n.d. | (D) SR12460: mIL-6 (ng/ml): n.d. (50μM) | (D) SR12454: mIL-6 (ng/ml): n.d. (50μM) DOUBTS OF THE COPYIST ABOUT THIS PICTURE: Panel D: the only printed results are the three "n.d." labels. They stand in place of bars and are assigned to ikki VII, SR12460 50μM and SR12454 50μM by their position on the axis. All other results are shown only as bars, with no printed numbers.
To confirm the qRT-PCR results, the levels of IL-6 production in Raw 264.7 cells activated by LPS were analyzed by ELISA.
Raw 264.7 cells were grown in 96-well plates and pretreated with vehicle, IKKi VII (2 μM), and small molecules (at indicated concentration) for 1 h, followed by the stimulation with 1 μg/ml of LPS. Supernatant was collected 24 h later for ELISA analysis. IL-6 concentration was measured using a mouse IL-6 ELISA kit (BD) according to the manufacturer’s instructions.

NF-κB target genes = assay: qRT-PCR of NF-κB target genes in LPS-stimulated Raw 264.7 cells; assay type: cell-based, mouse; settings: Fig 4C, LPS 1 μg/ml 2 h, IKKi VII 2 μM, 8K-NBD 200 μM, SR compounds 50 μM, relative to no LPS

Row | Structure (SMILES) | NF-κB luciferase activity normalized to vehicle (NF-κB activation) | Cell viability normalized to untreated cells (MTT) (HEK293 cells) | further results
1 | O=C(COC(=O)c1ccccn1)Nc1ncc(C(F)(F)F)cc1Cl [ZINC10] | 108.77 and 101.36 and 116.46 and 94.96 and 126.1 | 89 and 65 and 84 and 79 | –
2 | O=C(COC(=O)c1ncc(Cl)c(Cl)c1Cl)Nc1ccc(Cl)cn1 [ZINC1] | lowered NF-κB activity robustly | – | –
3 | O=C(COC(=O)c1c2ccccc2cc2ccccc12)Nc1ncc(C(F)(F)F)cc1Cl [ZINC7] | 99.14 and 98.45 and 107.93 and 94.89 | 73 and 51 and 70 and 69 | –
4 | O=C(COC(=O)Cc1ccccc1)Nc1ncc(Cl)cc1Cl [ZINC9] | 67.06 and 59.84 and 88.3 and 70.04 and 84.32 | 92 and 86 and 88 | NF-κB luciferase activity normalized to vehicle (NF-κB activation; listed as Zinc9): lowered NF-κB activity robustly
5 | O=C(c1ccc(Nc2nccc(-c3cc4ccccc4s3)n2)cc1)N1CCC(N2CCCC2)CC1 [IKKi VII, reference compound] | lowered NF-κB activity robustly | – | mIL-6 in supernatant (ELISA) (IL-6 production): 0 ng/mL; iNOS mRNA expression (qRT-PCR) (NF-κB target genes): failed to down-regulate iNOS expression; COX2 mRNA expression (qRT-PCR) (NF-κB target genes; listed as ikki VII): 169.382 and 169.611 and 190.029; IL6 mRNA expression (qRT-PCR) (NF-κB target genes; listed as ikki VII): 61.5373 and 59.8482 and 47.3662; IL-1b mRNA expression (qRT-PCR) (NF-κB target genes; listed as ikki VII): 67.7567 and 72.7507 and 75.5037; TNFa mRNA expression (qRT-PCR) (NF-κB target genes; listed as ikki VII): 61.1388 and 68.3653 and 68.6282; iNOS mRNA expression (qRT-PCR) (NF-κB target genes; listed as ikki VII): 24.1042 and 20.2843 and 19.9052; ikBa mRNA expression (qRT-PCR) (NF-κB target genes; listed as ikki VII): 8.329 and 8.125 and 9.136
6 | NC(=O)COC(=O)c1cccnc1Nc1ccccc1F [ZINC13] | 100.33 and 91.05 and 121.31 and 95.5 and 122.97 | 82 and 81 and 84 and 90 | –
7 | O=C(COC(=O)c1nc(Cl)ccc1Cl)Nc1ncc(Cl)cc1Cl [ZINC2] | 87.9 and 94.94 and 107.72 and 95.11 and 110.04 | – | –
8 | O=C(COC(=O)c1cccc2ccccc12)Nc1ncc(C(F)(F)F)cc1Cl [ZINC8] | 56.26 and 53.09 and 63.7 and 43.79 and 59.31 | 51 and 82 and 57 and 61 | NF-κB luciferase activity normalized to vehicle (NF-κB activation; listed as Zinc8): lowered NF-κB activity robustly
9 | O=C(COC(=O)c1ccc2ccccc2c1)Nc1ncc(C(F)(F)F)cc1Cl [ZINC4] | 99.2 and 99.51 and 98.62 and 84.84 and 111.34 | 62 and 80 and 74 and 70 | –
10 | O=C(COC(=O)c1cccc(F)c1)Nc1ccc(Cl)cn1 [ZINC14] | 108.83 and 98.08 and 117.73 and 100.75 and 124.98 | 60 and 64 and 68 and 84 | –
11 | O=C(COC(=O)c1nc(Cl)ccc1Cl)Nc1ccc(Cl)cn1 [ZINC3] | 111.63 and 103.8 and 115.96 and 89.11 and 115.8 | 97 and 81 and 75 | –
12 | O=C(COC(=O)c1ccc(F)cc1F)Nc1ccc(Cl)cn1 [ZINC12] | 95.61 and 79.06 and 109.79 and 80.64 and 92.59 | 94 and 85 and 87 | –
13 | O=C(COC(=O)c1cccnc1Cl)Nc1ncc(Cl)cc1Cl [ZINC6] | 114.53 and 96.57 and 113.68 and 101.67 and 104.3 | 90 and 71 and 78 and 92 | –
14 | O=C(COC(=O)c1ccc(Cl)nc1)Nc1ncc(Cl)cc1Cl [ZINC11] | 90.11 and 74.66 and 111.57 and 92.82 and 119.55 | 77 and 62 and 78 and 72 | –
15 | O=C(COC(=O)c1ccc(F)cc1)Nc1ccc(Cl)cn1 [ZINC15] | 103.61 and 97.73 and 103.85 and 95.58 and 115.08 | 58 and 77 and 86 | –
16 | O=C(NN=C1CCN(Cc2ccccc2)CC1)[C@H]1C[C@@H]1c1ccccc1 [ZINC05682974] | – | – | NF-κB luciferase activity normalized to untreated stimulated control (NF-κB activation): remained unchanged; NF-κB luciferase activity normalized to untreated stimulated control (NF-κB activation; listed as ZINC05682947): 105.454 and 97.4199
